Experimental findings from US20240109925A1, “Enhanced Anti-Proliferative and Antitumor Immune Effects of Mitochondria-Targeted Hydroxyurea” (The Medical College of Wisconsin, Inc., priority 2021, published 2024) are described below.

One may read the IC50 as the concentration needed to halve the response being measured.

Where two headings read alike, the source gives them in different places.

Assay [1] deals with T1, mitochondrial complex III (Homo sapiens, UniProt P00156+P47985).
T1 construct: other: mean ± SD; HCT116, 24 hr treatment; Complex III activity (OCR, % of control); other: 0.1 μM, 24 hr, HCT116; n = 4; other: 0.5 μM, 24 hr, HCT116; other: 0.75 μM, 24 hr, HCT116; other: 1 μM, 24 hr, HCT116; Compl
Put plainly: Complex III-dependent oxygen consumption (OCR), Seahorse XF-96, HCT116 cells. It is filed as cell-based. The method, then: (§1) FIG. 2. Effects of HU and Mito-HUs on the oxygen consumption by mitochondrial complexes I and III (A) Dose-dependent effects of HU, Mito10-HU, Mito12-HU, Mito14-HU, Mito16-HU, and Mito20-HU on complex I- and complex III-dependent oxygen consumption were measured in HCT116 cells. HCT116 cells were treated with HU or Mito-HUs as indicated for 24 hr. Mitochondrial complex I activity (left) and complex III activity (right) were monitored by a Seahorse XF-96 analyzer. Either rotenone (complex I inhibitor) or antimycin A (complex III inhibitor) was acutely added and OCR assayed immediately. (B) The mitochondrial complex I (left) and III (right) dependent oxygen consumption (calculated as rotenone or antimycin A inhibitable OCR) are plotted against concentration of HU and Mito-HUs. Dashed lines represent the fitting curves used for determination of the IC50 values. Data shown are the means G SD.
(§2) Mitochondrial oxygen consumption was measured using the Seahorse XF-96 Extracellular Flux Analyzer (Agilent, North Billerica, MA) (Cheng et al., 2013, 2016; Boyle et al., 2018; Weinberg and Chandel, 2015). After cells were treated with HU or Mito-HUs for 24 hr, the OCR-based assessment of mitochondrial complex activities was carried out on acutely permeabilized cells in the presence of different mitochondrial substrates, i.e., pyruvate/malate for complex I and duroquinol for complex III (Cheng et al., 2016, 2019; Salabei et al., 2014; Wheaton et al., 2014). Rotenone, malonate, and antimycin A (Sigma-Aldrich, St. Louis, MO) were used as specific inhibitors of mitochondrial complexes I, II, and III, respectively. Briefly, cells that were intact after treatments were immediately permeabilized using the Seahorse XF Plasma Membrane Permeabilizer (Agilent). The mitochondrial complex I-induced OCR was assayed in mannitol and sucrose buffer (Salabei et al., 2014) containing 10 mM pyruvate and 1.5 mM malate (substrates for complex I) and 10 mM malonate (which inhibits complex II activities). The mitochondrial complex III-driven OCR was assayed in a mannitol and sucrose buffer containing 0.5 mM duroquinol (substrate for complex III) as well as […] and 10 mM malonate (which inhibit both complex I and II activities). The IC50 values were determined as previously reported (Cheng et al., 2019).

Assay [2] has as its target mitochondrial complex I (Homo sapiens, UniProt O75251+O75306+P03886). Briefly: Complex I-dependent oxygen consumption (OCR), Seahorse XF-96, HCT116 cells. It counts as cell-based. The protocol: as §1, §2
In assay [3] the test system is CD4 T cells. Briefly: In vitro differentiation of CD4 T cells (Treg / IFNg-YFP Teff), flow cytometry. It counts as cell-based, mouse. Particulars: for Concentration with Maximum Effect on IFN -YFP: tested concentration with maximum effect, six days culture. The source says:
FIG. 4. Effects of Mito10-HU on in vitro differentiation of CD4 T cells (A) The gating strategy reflects data from one DMSO control sample. First, the total population of cells was gated (FSC-A vs SSC-A). Then, single cells were gated (SSC-W vs SSC-H). Within the single cell population, we gated on the live CD4 T cells using a fixable LIVE/DEAD stain (CD4 vs DEAD). Within the live CD4 T cells we gated on CD25+FOXP3+Tregs (FOXP3 vs CD25), as well as IFNg-YFP+CD4 T cells (IFNg-YFP vs CD4). (B) Live CD4 T cells were gated within the single cell populations, at varying concentrations of Mito10-HU, along with DMSO controls (B, top row). CD25+FOXP3+Tregs (B, middle row) and IFNg-YFP+CD4 T cells (B, bottom row) were gated within the live CD4 T cell populations, at varying concentrations of Mito10-HU, along with DMSO controls. (C) Effects of Mito10-HU on live CD4+T cells within the lymphocyte gate (C, left), the frequency of FOXP3+CD25+cells within the live CD4+T cells (C, middle), and Teff function is shown as the frequency of IFNg-YFP positive cells within the live CD4+T cells (C, right). Data shown are the means & SD, n=2 per treatment group. *p<0.05, **p<0.01 vs control.
To differentiate CD4^+ T cells into a Treg phenotype, splenocytes from SMARTA triple-reporter mice were processed and the red blood cells were lysed using an ACK (ammonium-chloride-potassium) lysis buffer. The cells were then activated with […] GP61-80 peptide (GenScript, Piscataway, NJ) and 5 ng/mL TGF-b1 (Shenandoah Biotechnology, Inc., Warwick, PA). After one day of initial skewing, […] IL-2 along with HU or Mito-HUs (n=4-20) of varying concentrations were added to the culture. Cells were cultured for six days and split once cells reached confluency; cells were replenished with IL-2 and compound (i.e., MitoHUs) accordingly. After six days in culture, cells were stained to assess the viability and phenotypic analysis via flow cytometry. LIVE/DEAD fixable violet or aqua dead cell stain (Invitrogen) was used to assess cell viability. Only live cells were gated out for further functional analysis by using a fixable LIVE/DEAD stain. First, total population of cells was gated (FSC-A vs SSC-A). Then, single cells were gated (SSC-W vs SSC-H). Within the single cell population, we gated on the live CD4 T cells using a fixable Live/Dead stain (CD4 vs DEAD). Within the live CD4 T cells, we gated on CD25^+FOXP3^+ Tregs (FOXP3 vs CD25), as well as IFNg-YFP^+ CD4 T cells (IFNg-YFP vs CD4).
The following antibodies were used for flow cytometry staining: APC-Cy7 anti-mouse CD4 (clone: GK1.5; BioLegend, San Diego, CA), APC anti-mouse CD25 (clone: PC61; BioLegend), and PE anti-mouse FOXP3 (clone: FJK-165; eBioscience, San Diego, CA). Flow cytometry data were acquired using a BD Celesta flow cytometer (BD Biosciences, San Jose, CA) flow cytometer and analyzed using FlowJo (Treestar, Inc., Ashland, OR) (FlowJo Software, 2019).
For orientation: In flow cytometry, cells or beads pass a laser one at a time.

Where [4] appears, read: mean ± SD; HCT116, 24 hr treatment; read-out: IC50 Complex III (FIG. 2).
[5] abbreviates: mean ± SD; HCT116, 24 hr treatment; read-out: IC50 Complex I (FIG. 2).

As to `NC(=O)NO` [HU, Hydroxyurea], the “effect on complex III-induced oxygen consumption” value in assay [1] (HCT116, 24 hr) was “no apparent effects”. Besides, the remaining activity at 10 µM came out at 94.1% in assay [1] (HCT-116; 10 μM, 24 hr, HCT116; n = 4; read-out: Complex III activity (OCR, % of control)) and 84.7% in assay [2] (HCT-116; 10 μM, 24 hr, HCT116; n = 4; read-out: Complex I activity (OCR, % of control)). For the same compound, the remaining activity at 30 µM worked out at 81.2% in assay [1] (HCT-116; 30 μM, 24 hr, HCT116; n = 4; read-out: Complex III activity (OCR, % of control)) and 77% in assay [2] (HCT-116; 30 μM, 24 hr, HCT116; n = 4; read-out: Complex I activity (OCR, % of control)). The remaining activity at 100 µM in assay [1] (HCT-116; 100 μM, 24 hr, HCT116; n = 4; read-out: Complex III activity (OCR, % of control)) stood at 94.6%; in assay [2] (HCT-116; 100 μM, 24 hr, HCT116; n = 4; read-out: Complex I activity (OCR, % of control)) it was 87.9%. Besides, the remaining activity at 150 µM in assay [1] (HCT-116; 150 μM, 24 hr, HCT116; n = 4; read-out: Complex III activity (OCR, % of control)) worked out at 92.2%; in assay [2] (HCT-116; 150 μM, 24 hr, HCT116; n = 4; read-out: Complex I activity (OCR, % of control)) it was 86.1%. The remaining activity at 200 µM in assay [1] (HCT-116; 200 μM, 24 hr, HCT116; n = 4; read-out: Complex III activity (OCR, % of control)) stood at 82.7%; in assay [2] (HCT-116; 200 μM, 24 hr, HCT116; n = 4; read-out: Complex I activity (OCR, % of control)) it was 86.5%. In addition, the remaining activity at 250 µM came to 89.1% in assay [1] (HCT-116; 250 μM, 24 hr, HCT116; n = 4; read-out: Complex III activity (OCR, % of control)) and 91.3% in assay [2] (HCT-116; 250 μM, 24 hr, HCT116; n = 4; read-out: Complex I activity (OCR, % of control)). The remaining activity at 300 µM in assay [1] (HCT-116; 300 μM, 24 hr, HCT116; n = 4; read-out: Complex III activity (OCR, % of control)) was 88.7%; in assay [2] (HCT-116; 300 μM, 24 hr, HCT116; n = 4; read-out: Complex I activity (OCR, % of control)), 85.7%. Besides, the remaining activity at 400 µM amounted to 86.8% in assay [1] (HCT-116; 400 μM, 24 hr, HCT116; n = 4; read-out: Complex III activity (OCR, % of control)) and 70.5% in assay [2] (HCT-116; 400 μM, 24 hr, HCT116; n = 4; read-out: Complex I activity (OCR, % of control)). Besides, the remaining activity at 500 µM in assay [1] (HCT-116; 500 μM, 24 hr, HCT116; n = 4; read-out: Complex III activity (OCR, % of control)) is 88.9%; in assay [2] (HCT-116; 500 μM, 24 hr, HCT116; n = 4; read-out: Complex I activity (OCR, % of control)), 82.1%. The remaining activity at 1000 µM in assay [1] (HCT-116; 1000 μM, 24 hr, HCT116; n = 4; read-out: Complex III activity (OCR, % of control)) was 93.1%; in assay [2] (HCT-116; 1000 μM, 24 hr, HCT116; n = 4; read-out: Complex I activity (OCR, % of control)), 80.2%. For the same compound, the remaining activity at 3000 µM in assay [1] (HCT-116; 3000 μM, 24 hr, HCT116; n = 4; read-out: Complex III activity (OCR, % of control)) came to 94.4%; in assay [2] (HCT-116; 3000 μM, 24 hr, HCT116; n = 4; read-out: Complex I activity (OCR, % of control)), 83.1%. In addition, the concentration for half-maximal inhibition (IC50) is more than 3000 µM in assay [1] (read-out: IC50 Complex III (FIG. 2); mean ± SD; HCT116, 24 hr treatment) and more than 3000 µM in assay [2] (read-out: IC50 Complex I (FIG. 2); mean ± SD; HCT116, 24 hr treatment). Besides, the “effect on complex I-induced oxygen consumption” value in assay [2] (HCT116, 24 hr) is given as “no apparent effects”. For the same compound, the “Concentration with Maximum Effect on IFN -YFP” value (“Concentration” below) in assay [3] is 200 µM.

As for `NC(=O)NOCCCCCCCCCC[P+](c1ccccc1)(c1ccccc1)c1ccccc1.O=C([O-])C(F)(F)F` [Mito10-HU, 10-[(carbamoylamino)oxy]-decyltriphenylphosphonium trifluoroacetate], the “effect on complex III-induced oxygen consumption” value in assay [1] (HCT116, 24 hr) was “potently inhibited”. Besides, the IC50 in assay [1] (setting [4]) is 21 ± 0.72 µM; in assay [2] (setting [5]), 8.9 ± 1.22 µM. Moreover, the “effect on complex I-induced oxygen consumption” value in assay [2] (HCT116, 24 hr) is listed as “potently inhibited”. The “FOXP3+ Treg differentiation” value in assay [3] (six days) is on record as “inhibited FOXP3^+ Treg differentiation and/or survival”. In addition, in assay [3] (six days), the “Teff IFNg production” value is on record as “promoted Teff IFNg production”. Also, in assay [3], the “Concentration” value came to 12.5 µM.

Regarding `NC(=O)NOCCCCCCCCCCCCCC[P+](c1ccccc1)(c1ccccc1)c1ccccc1.O=C([O-])C(F)(F)F` [Mito14-HU, 14-[(carbamoylamino)oxy]-tetradecyltriphenylphosphonium trifluoroacetate], the “effect on complex III-induced oxygen consumption” value in assay [1] (HCT116, 24 hr) was “potently inhibited”. Moreover, the half-inhibitory concentration (IC50) in assay [1] (setting [4]) turned out to be 1.7 ± 0.69 µM; in assay [2] (setting [5]) it was 1 ± 0.12 µM. Moreover, the “effect on complex I-induced oxygen consumption” value in assay [2] (HCT116, 24 hr) is “potently inhibited”. For the same compound, the “Concentration” value in assay [3] was 1.5 µM.

`NC(=O)NOCCCCCCCCCCCC[P+](c1ccccc1)(c1ccccc1)c1ccccc1.O=C([O-])C(F)(F)F` [Mito12-HU, 12-[(carbamoylamino)oxy]-dodecyltriphenylphosphonium trifluoroacetate]: the “effect on complex III-induced oxygen consumption” value in assay [1] (HCT116, 24 hr) is reported as “potently inhibited”. In addition, the IC50 in assay [1] (setting [4]) was 3.1 ± 0.18 µM; in assay [2] (setting [5]), 1.6 ± 0.16 µM. Further, the “effect on complex I-induced oxygen consumption” value in assay [2] (HCT116, 24 hr) is reported as “potently inhibited”. Also, the “Concentration” value in assay [3] was determined as 10 µM.

In the case of `NC(=O)NOCCCCCCCCCCCCCCCC[P+](c1ccccc1)(c1ccccc1)c1ccccc1.O=C([O-])C(F)(F)F` [Mito16-HU, 16-[(carbamoylamino)oxy]-hexadecyltriphenylphosphonium trifluoroacetate], the “effect on complex III-induced oxygen consumption” value in assay [1] (HCT116, 24 hr) is on record as “potently inhibited”. Also, the values for the IC50 in assay [1] (setting [4]) and in assay [2] (setting [5]) were 2.6 ± 0.39 µM and 0.8 ± 0.05 µM, respectively. Besides, in assay [2] (HCT116, 24 hr), the “effect on complex I-induced oxygen consumption” value is listed as “potently inhibited”. The “Concentration” value in assay [3] amounted to 0.4 µM.
